Reference: publication PMC7142304, “Oxadiazole-Containing Macrocyclic Peptides Potentiate Azole Activity against Pathogenic Candida Species” (mSphere, 2020)
In brackets after ≈: the same amount, converted by molar mass.

How the values were obtained:
[1] = test system: ABC transporters Cdr1 and Cdr2; assay: Rhodamine-6G intracellular accumulation (efflux inhibition); format: cell-based; settings: 30°C
Method: (A) The effect of JRF1199-1 and JRF1199-2 on filamentation of C. albicans (SN95, CaLC239) was monitored after incubation in YPD medium at 30°C or 39°C for 4 h with shaking. Images were taken by differential interference contrast microscopy. Representative fields from micrographs obtained at the same magnification for all images are presented. (B) C. albicans (Caf2-1, CaLC2742) was grown in YPD medium at 30°C for 3 h with or without 125 μM macrocycle or 10 μg/ml of beauvericin. A concentration of 1 μg/ml of rhodamine-6G was added to the cultures for another 30 min at 30°C. Cells were washed twice with phosphate-buffered saline (PBS), followed by fluorescence microscopy to monitor rhodamine-6G accumulation in cells. (C) The fluorescence of untreated cells or of cells treated with beauvericin or JRF1198-2 was quantitated by flow cytometry. Assays were performed using 250 μl of culture per well, and fluorescence was measured using the FL2 (phycoerythrin) channel in a CytoFLEX flow cytometer (Beckman Coulter Inc.) with at least 20,000 events acquired per sample. Events were gated to capture at least 90% of the entire population analyzed, discarding clumps/cellular debris. […] Growth was measured by absorbance at 600 nm after 24 h (C. parapsilosis [CpLC573], C. auris [Ci 6684, CauLC5083], and C. glabrata [BG2, CgLC1002]) or after 48 h (C. tropicalis [CtLC573]) at 30°C. […]

[2] = test system: C. glabrata, C. auris, C. tropicalis, and C. parapsilosis; assay: Fluconazole MIC against azole-resistant non-albicans Candida panel; format: cell-based, Candida species; settings: in the absence of macrocyclic peptides; range over the four strains; YPD, 30°C

MIC [2] [µg/mL]	Compound	Mean Fluorescence (rhodamine-6G accumulation) ([1]; flow cytometry, FL2 channel, 3 h with 125 μM macrocycle or 10 μg/ml beauvericin, then 1 μg/ml rhodamine-6G for 30 min, at least 20,000 events)	Effect on rhodamine-6G accumulation ([1]; microscopy and flow cytometry, 125 μM macrocycle or 10 μg/ml beauvericin, YPD)
–	beauvericin	275895.3	enhanced rhodamine-6G accumulation
32 to 256 (≈ 104 to 836 µM)	OC(Cn1cncn1)(Cn1cncn1)c1ccc(F)cc1F [fluconazole]	–	–
